The values below come from the supplement of paper PMC10307832.

Holding throughout (assay): relative viability (nuclei count vs DMSO), 5 days (fraction); higher = more cells survive
Compound in assay [1]: C1=CC=C(C(=C1)C2=CC=C(C=C2)C3=CSC4=C3C(=C(C(=O)N4)C#N)O)O + Cc1nc(NC(=O)N2CCC[C@H]2C(N)=O)sc1-c1ccnc(C(C)(C)C(F)(F)F)c1 [Alpelisib] (partner 2 µM)
The essentials:
(§1)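 Lung cancer cell lines, seeded in 1536-well plates, were treated the following day by pin tool with a single drug or with five library-drug doses (not always all listed) in √10 steps on top of a fixed anchor-drug dose. Cells were fixed and nuclei stained in one step after 5 days, and nuclei were counted. Relative viability is the nuclei count for treated wells divided by that for vehicle wells, reported as medians of duplicate plates.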

Compound in assay [2]: C1=CC=C(C(=C1)C2=CC=C(C=C2)C3=CSC4=C3C(=C(C(=O)N4)C#N)O)O + Cc1nc(Nc2ncc(C(=O)Nc3c(C)cccc3Cl)s2)cc(N2CCN(CCO)CC2)n1 [Dasatinib] (partner 0.075 µM)
The essentials:
as §1

Compound in the assay “TGX 221 + Navitoclax”: CC1=CN2C(=O)C=C(N=C2C(=C1)C(C)NC3=CC=CC=C3)N4CCOCC4 [TGX 221] + CC1(C)CCC(c2ccc(Cl)cc2)=C(CN2CCN(c3ccc(C(=O)NS(=O)(=O)c4ccc(N[C@H](CCN5CCOCC5)CSc5ccccc5)c(S(=O)(=O)C(F)(F)F)c4)cc3)CC2)C1 [Navitoclax] (partner 0.5 µM)
The essentials:
as §1

Compound in the assay “TGX 221 + Phenformin”: CC1=CN2C(=O)C=C(N=C2C(=C1)C(C)NC3=CC=CC=C3)N4CCOCC4 [TGX 221] + N=C(N)NC(=N)NCCc1ccccc1 [Phenformin] (partner 250 µM)
An outline of the steps: as §1

Compound in the assay “Ricolinostat + OSI-027”: O=C(CCCCCCNC(=O)c1cnc(N(c2ccccc2)c2ccccc2)nc1)NO [Ricolinostat] + COc1cccc2cc(-c3nc([C@H]4CC[C@H](C(=O)O)CC4)n4ncnc(N)c34)[nH]c12 [OSI-027] (partner 0.5 µM)
The essentials:
as §1

As to NCI-H1792, the relative viability turned out to be 0.638 in assay [1] (first compound 0.253 µM); 0.744 in assay [1] (first compound 0.8 µM); 0.612 in assay [1] (first compound 2.53 µM); 0.336 in assay [1] (first compound 8 µM); 0.803 in assay [2] (first compound 0.253 µM); 0.722 in assay [2] (first compound 2.53 µM). The relative viability was found to be 0.508 in assay [2] (first compound 8 µM); 0.549 in the assay with TGX 221 + Navitoclax (first compound 0.08 µM); 0.713 in the assay with TGX 221 + Navitoclax (first compound 0.253 µM); 0.591 with TGX 221 + Navitoclax (first compound 0.8 µM); 0.62 with TGX 221 + Navitoclax (first compound 2.53 µM); 0.625 with TGX 221 + Navitoclax (first compound 8 µM). Also, the relative viability with TGX 221 + Phenformin (first compound 0.8 µM) is 0.249; with TGX 221 + Phenformin (first compound 2.53 µM), 0.319; in the assay with TGX 221 + Phenformin (first compound 8 µM) it was 0.283; in the assay with Ricolinostat + OSI-027 (first compound 0.253 µM), 0.709; in the assay with Ricolinostat + OSI-027 (first compound 0.8 µM), 0.693; with Ricolinostat + OSI-027 (first compound 2.53 µM), 0.759.
